Consider one molecule from paper PMC6985936, “2-Amino-2,3-dihydro-1H-indene-5-carboxamide-Based Discoidin Domain Receptor 1 (DDR1) Inhibitors: Design, Synthesis, and in Vivo Antipancreatic Cancer Efficacy” (Journal of Medicinal Chemistry, 2019).

For data set [1] the following is noted: SD rats.
Procedure: (§1) All animal studies were performed according to the protocols and guidelines of the institutional care and use committee. The 4–6 week old male Sprague-Dawley rats were purchased from the Shanghai Laboratory Animal Research Center (Shanghai, China). All of the procedures related to animal handling, care, and treatment in this article were performed in compliance with Agreement of the Ethics Committee on Laboratory Animal Care and the Guidelines for the Care and Use of Laboratory Animals in Shanghai, China. […] The compound was dissolved in the solution containing 2% DMSO, 4% ethanol, 4% castor oil, and 90% ddH2O. Pharmacokinetic properties of SD rats (male) were determined following intravenous (iv) and oral administration. Animals were randomly distributed into two experimental groups (n = 3). The oral groups were given 25 mg/kg by gastric gavage. The other group was dosed by injection into the tail vein (5 mg/kg). […] Whole blood samples were collected in heparinized tubes. The plasma fraction was immediately separated by centrifugation (8000 rpm, 6 min, 4 °C) and stored at −20 °C until liquid chromatography–mass spectrometry analysis. […] The pharmacokinetics parameters were calculated by analyzing the compound concentration in plasma samples using the pharmacokinetic software DAS.2.0.
A further data set is described as follows: in vivo. To be noted: male, Sprague-Dawley, rat, plasma, po, 25 mg/kg.

Where two headings read alike, the source gives them in different places.

Procedure for in vivo: as §1

Take `Cc1cn(-c2cc(NC(=O)c3ccc4c(c3)C[C@H](N(C)c3cncnc3)C4)cc(C(F)(F)F)c2)cn1` [7f, (R)-2-(Methyl(pyrimidin-5-yl)amino)-N-(3-(4-methyl-1H-imidazol-1-yl)-5-(trifluoromethyl)phenyl)-2,3-dihydro-1H-indene-5-carboxamide]: the results for the T1/2 in data set [1] (iv 5 mg/kg) and in data set [1] (po 25 mg/kg) were 0.9 h and 1.7 h, respectively. Also, the Tmax in data set [1] (iv 5 mg/kg) was 0.083 h; in data set [1] (po 25 mg/kg), 4.0 h. Besides, the “AUC(0–∞)” value in data set [1] (po 25 mg/kg, 25 mg/kg) is listed as 80 535 μg/(L h). Moreover, the bioavailability in the data set “in vivo” amounted to 89.9%.

Broadly, the Tmax is the time from dosing to the highest level. A word on the bioavailability: it is the share of a dose that reaches the circulation, judged against a reference dose that is usually intravenous.
